Where “and” joins values, the source holds several entries; their conditions need not be identical. Equal entries are not always repeated. Toxic doses and inconclusive results are not listed. The calls were made as follows: active = survival T/C of 150% or more; inactive = T/C below 125% in these data.
System: P388 leukemia ip, CD2F1 mice, survival T/C
Assay: NCI In Vivo Anticancer Drug Screen. Data for tumor model P388 Leukemia (intraperitoneal) in CD2F1 (CDF1) mice
Details: endpoint: median survival time, higher = longer survival
In short: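 Mice carrying the transplanted tumor received test compound or vehicle. Survival was recorded in each group, and the value is the treated-group measurement divided by that of the vehicle-treated control group.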

[1] = dose: 50.0 mg/kg/injection, schedule: Q01DX009 (ip), vehicle: saline
[2] = dose: 100.0 mg/kg/injection, schedule: Q01DX009 (ip), vehicle: saline
[3] = dose: 200.0 mg/kg/injection, schedule: Q01DX009 (ip), vehicle: saline
[4] = dose: 12.5 mg/kg/injection, schedule: Q01DX009 (ip), vehicle: water
[5] = dose: 50.0 mg/kg/injection, schedule: Q01DX005 (ip), vehicle: Klucel (hydroxypropylcellulose) (HPC)
[6] = dose: 100.0 mg/kg/injection, schedule: Q01DX005 (ip), vehicle: Klucel (hydroxypropylcellulose) (HPC)
[7] = dose: 200.0 mg/kg/injection, schedule: Q01DX005 (ip), vehicle: Klucel (hydroxypropylcellulose) (HPC)
[8] = dose: 50.0 mg/kg/injection, schedule: Q01DX009 (ip), vehicle: Klucel (hydroxypropylcellulose) (HPC)
[9] = dose: 100.0 mg/kg/injection, schedule: Q01DX009 (ip), vehicle: Klucel (hydroxypropylcellulose) (HPC)
[10] = dose: 200.0 mg/kg/injection, schedule: Q01DX009 (ip), vehicle: Klucel (hydroxypropylcellulose) (HPC)
[11] = dose: 25.0 mg/kg/injection, schedule: Q01DX009 (ip), vehicle: Klucel (hydroxypropylcellulose) (HPC)
[12] = dose: 60.0 mg/kg/injection, schedule: Q01DX005 (ip), vehicle: saline with Tween-80
[13] = dose: 120.0 mg/kg/injection, schedule: Q01DX005 (ip), vehicle: saline with Tween-80
[14] = dose: 50.0 mg/kg/injection, schedule: Q01DX005 (ip), vehicle: saline with Tween-80
[15] = dose: 100.0 mg/kg/injection, schedule: Q01DX005 (ip), vehicle: saline with Tween-80

Measured: T/C

CC1(C)Oc2cc3oc(C(=O)O)cc(=O)c3cc2-c2ccccc21
inactive: [1] 92 % of control | [2] 96 % of control | [3] 109 % of control

CC(=O)c1c(O)cc2c3c1OC(C)(C)C1CCC(C)(CC31)O2 (centres undefined)
inactive: dose: 6.25 mg/kg/injection, schedule: Q01DX009 (ip), vehicle: saline 105 % of control | dose: 12.5 mg/kg/injection, schedule: Q01DX009 (ip), vehicle: saline 105 % of control | dose: 25.0 mg/kg/injection, schedule: Q01DX009 (ip), vehicle: saline 104 % of control | [2] 89 % of control | [3] 93 % of control

[Cl][Pt+2][Cl].[NH-]C1C(O)OC(CO)C(O)C1O.[NH-]C1C(O)OC(CO)C(O)C1O (centres undefined)
inactive: dose: 25.0 mg/kg/injection, schedule: Q04DX002 (ip), vehicle: saline 105 % of control | dose: 50.0 mg/kg/injection, schedule: Q04DX002 (ip), vehicle: saline 105 % of control | dose: 100.0 mg/kg/injection, schedule: Q04DX002 (ip), vehicle: saline 105 % of control | dose: 200.0 mg/kg/injection, schedule: Q04DX002 (ip), vehicle: saline 112 % of control | dose: 400.0 mg/kg/injection, schedule: Q04DX002 (ip), vehicle: saline 106 % of control

C=C1C(=O)O[C@H]2C[C@@H]3O[C@@H]3[C@@H]12
inactive: dose: 1.56 mg/kg/injection, schedule: Q01DX009 (ip), vehicle: water 98 % of control | dose: 3.13 mg/kg/injection, schedule: Q01DX009 (ip), vehicle: water 100 % of control | dose: 6.25 mg/kg/injection, schedule: Q01DX009 (ip), vehicle: water 100 % of control | [4] 109 % of control

CC(=O)O[C@H]1CC[C@H]2[C@@H]3CCC(=O)CC(=O)CCC(=O)[C@H]3CC[C@]12C
inactive: [5] 108 % of control | [6] 109 % of control | [7] 105 % of control

Nc1cccc(S(=O)(=O)N/N=C/C(=O)O)c1
inactive: [4] 111 % of control | dose: 25.0 mg/kg/injection, schedule: Q01DX009 (ip), vehicle: water 116 % of control | dose: 50.0 mg/kg/injection, schedule: Q01DX009 (ip), vehicle: water 119 % of control | dose: 100.0 mg/kg/injection, schedule: Q01DX009 (ip), vehicle: water 117 % of control

COC1=C2C[C@@H](C)C[C@@H](OC)[C@@H](O)[C@H](C)/C=C(\C)[C@@H](OC(N)=O)[C@H](OC)/C=C\C=C(/C)C(=O)NC(=CC1=O)C2=O
inactive: dose: 0.75 mg/kg/injection, schedule: Q01DX009 (ip), vehicle: saline with Tween-80 114 % of control | dose: 1.5 mg/kg/injection, schedule: Q01DX009 (ip), vehicle: saline with Tween-80 115 % of control

COC(=O)c1cc(=O)n(C)[nH]1
inactive: [5] 104 % of control | [6] 105 % of control | [7] 98 % of control

N#CC1C(=O)NC(=S)NC1c1ccco1 (centres undefined)
inactive: [8] 100 % of control | [9] 95 % of control | [10] 92 % of control

CCN1CC2(C)CCC(OC)C34C5CC6CCC(O)(C5C(=O)O6)C(C(O)C23)C14 (centres undefined)
inactive: [11] 100 % of control | [8] 98 % of control | [9] 95 % of control

COc1cc2cc(-c3ccccc3)[n+](C)cc2cc1OC
inactive: dose: 12.5 mg/kg/injection, schedule: Q01DX001 (ip), vehicle: saline 95 % of control | dose: 25.0 mg/kg/injection, schedule: Q01DX001 (ip), vehicle: saline 110 % of control

Cc1cc(Cl)ccc1NC(=O)NC(C)(C)COC(=O)Nc1cccc(Cl)c1
inactive: dose: 15.0 mg/kg/injection, schedule: Q01DX005 (ip), vehicle: saline with Tween-80 99 % of control | dose: 30.0 mg/kg/injection, schedule: Q01DX005 (ip), vehicle: saline with Tween-80 94 % of control | [12] 90 % of control | [13] 86 % of control

Cc1nc2[nH]c(=O)ccc2c(C)c1N
inactive: dose: 25.0 mg/kg/injection, schedule: Q04DX002 (ip), vehicle: saline with Tween-80 103 % of control | dose: 50.0 mg/kg/injection, schedule: Q04DX002 (ip), vehicle: saline with Tween-80 110 % of control | dose: 100.0 mg/kg/injection, schedule: Q04DX002 (ip), vehicle: saline with Tween-80 100 % of control

CCCCCCCCCCCCCCCCCC(=O)[O][Sn]([CH2]CCC)([CH2]CCC)[O]C(=O)CCCCCCCCCCCCCCCCC
inactive: dose: 2.66 mg/kg/injection, schedule: Q04DX003 (ip), vehicle: other 109 % of control | dose: 4.0 mg/kg/injection, schedule: Q04DX003 (ip), vehicle: other 106 % of control | dose: 6.0 mg/kg/injection, schedule: Q04DX003 (ip), vehicle: other 109 % of control | dose: 9.0 mg/kg/injection, schedule: Q04DX003 (ip), vehicle: other 110 % of control

CCc1cccc(CC)c1-n1nnc(C(=O)c2ccccc2)c1C(=O)OC
inactive: dose: 60.0 mg/kg/injection, schedule: Q01DX005 (ip), vehicle: Klucel + Tween-80 100 % of control | dose: 120.0 mg/kg/injection, schedule: Q01DX005 (ip), vehicle: Klucel + Tween-80 109 % of control | dose: 240.0 mg/kg/injection, schedule: Q01DX005 (ip), vehicle: Klucel + Tween-80 102 % of control

CCOC(CN(C)C)C(Cl)(Cl)Cl (centres undefined)
inactive: [11] 103 % of control | [8] 103 % of control | [9] 88 % of control | [10] 108 % of control

COC(=O)c1nc(N)nc(C(=O)OC)c1C(=O)c1cccc2ccccc12
inactive: dose: 60.0 mg/kg/injection, schedule: Q01DX005 (ip), vehicle: Klucel (hydroxypropylcellulose) (HPC) 99 % of control | dose: 120.0 mg/kg/injection, schedule: Q01DX005 (ip), vehicle: Klucel (hydroxypropylcellulose) (HPC) 100 % of control

Cc1ccc(S(=O)CC(O)CO)cc1 (centres undefined)
inactive: [1] 95 % of control | [2] 101 % of control | [3] 108 % of control

O=C(Nc1ccc(C2=NCCN2)cc1)c1ccc(C(=O)Nc2ccc(C3=NCCN3)cc2)cc1
inactive: dose: 75.0 mg/kg/injection, schedule: Q01DX010 (ip), vehicle: saline 118 % of control | dose: 112.0 mg/kg/injection, schedule: Q01DX010 (ip), vehicle: saline 100 % of control

c1cnc2c(NC3CCCCC3)ncnc2n1
inactive: [8] 100 % of control | [9] 98 % of control | [10] 97 % of control

CCOC(=O)c1ccc(NC(C)=NC(C)(C)C)cc1
inactive: [8] 93 % of control | [9] 91 % of control | [10] 102 % of control

COc1cc2c(cc1OC)C[N+]1(C)CCc3cc(OC)c(OC)cc3C1C2 (centres undefined)
inactive: dose: 10.0 mg/kg/injection, schedule: Q01DX009 (ip), vehicle: saline 111 % of control | dose: 20.0 mg/kg/injection, schedule: Q01DX009 (ip), vehicle: saline 111 % of control

Nc1nc(N)c2cc(Sc3ccc4ccccc4c3)ccc2n1
inactive: dose: 50.0 mg/kg/injection, schedule: Q01DX009 (ip), vehicle: saline with Tween-80 119 % of control | dose: 200.0 mg/kg/injection, schedule: Q01DX009 (ip), vehicle: saline with Tween-80 119 % of control

CSCc1cc([N+](=O)[O-])ccc1N
inactive: dose: 100.0 mg/kg/injection, schedule: Q01DX001 (ip), vehicle: saline with Tween-80 91 % of control | dose: 200.0 mg/kg/injection, schedule: Q01DX001 (ip), vehicle: saline with Tween-80 98 % of control

O=C(N/C(=C/c1ccc(Cl)cc1Cl)c1nc2ccccc2s1)c1ccccc1
inactive: [14] 109 % of control | [15] 111 % of control

COC(=O)C1C2c3ccccc3C(C1C(=O)OC)[n+]1ccccc12 (centres undefined)
inactive: dose: 25.0 mg/kg/injection, schedule: Q01DX005 (ip), vehicle: Klucel (hydroxypropylcellulose) (HPC) 94 % of control | [5] 94 % of control | [6] 100 % of control

c1ccc2c(c1)c1c(c3ccccc32)CNCC1
inactive: dose: 3.12 mg/kg/injection, schedule: Q01DX005 (ip), vehicle: saline with Tween-80 97 % of control | dose: 6.25 mg/kg/injection, schedule: Q01DX005 (ip), vehicle: saline with Tween-80 95 % of control | dose: 12.5 mg/kg/injection, schedule: Q01DX005 (ip), vehicle: saline with Tween-80 101 % of control and 95 % of control | [14] 117 % of control

N#CC(c1c(Cl)cccc1N1CCCCC1)N1CCCCC1 (centres undefined)
inactive: [14] 108 % of control | [15] 104 % of control | dose: 200.0 mg/kg/injection, schedule: Q01DX005 (ip), vehicle: saline with Tween-80 100 % of control

O=C(C(=O)c1cccc(C(=O)C(=O)c2ccccc2)c1)c1ccccc1
inactive: [12] 104 % of control | [13] 96 % of control | dose: 240.0 mg/kg/injection, schedule: Q01DX005 (ip), vehicle: saline with Tween-80 92 % of control

Reference: PubChem BioAssay AID330 (DTP/NCI, 2004)
